Patent US12371432B2, “Haloallylamine compounds and application thereof” (TransThera Sciences (Nanjing), Inc., priority 2019, dated 2025)
Structures can show the parent of a compound that is named as a salt.

Tests used:
rhVAP-1 = target: T1, rhVAP-1 (Homo sapiens, UniProt Q16853); assay: Inhibitory activity against rhVAP-1 enzyme (Biological Example 2); assay type: biochemical; conditions: Table 2; benzylamine substrate, Amplex Red/HRP
T1 construct: purchased PeproTech
T1 sequence (Q16853 27-763 limits assumed): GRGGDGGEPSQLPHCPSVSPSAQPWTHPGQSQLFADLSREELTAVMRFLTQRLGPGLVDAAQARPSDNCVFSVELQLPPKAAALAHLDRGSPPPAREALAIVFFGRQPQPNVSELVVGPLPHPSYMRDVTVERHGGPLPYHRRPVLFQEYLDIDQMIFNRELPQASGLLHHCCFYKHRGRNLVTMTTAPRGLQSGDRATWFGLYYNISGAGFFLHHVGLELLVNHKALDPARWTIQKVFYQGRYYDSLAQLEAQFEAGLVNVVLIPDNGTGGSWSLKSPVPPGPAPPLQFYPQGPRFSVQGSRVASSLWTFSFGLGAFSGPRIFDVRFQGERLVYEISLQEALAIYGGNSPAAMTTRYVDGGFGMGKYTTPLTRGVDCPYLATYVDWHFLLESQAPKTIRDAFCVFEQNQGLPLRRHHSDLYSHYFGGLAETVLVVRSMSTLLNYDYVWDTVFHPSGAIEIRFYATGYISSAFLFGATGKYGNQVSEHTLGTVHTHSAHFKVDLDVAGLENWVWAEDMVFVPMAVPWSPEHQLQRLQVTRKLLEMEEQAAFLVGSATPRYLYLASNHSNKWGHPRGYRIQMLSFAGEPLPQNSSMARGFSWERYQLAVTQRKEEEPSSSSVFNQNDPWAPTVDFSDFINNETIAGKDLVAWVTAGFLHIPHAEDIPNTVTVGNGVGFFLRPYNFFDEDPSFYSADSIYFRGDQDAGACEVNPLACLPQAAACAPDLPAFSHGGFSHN
Procedure, shortened: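 Enzyme was preincubated 30 min at 37 °C in PBS with a 10-point 3-fold compound dilution series. Benzylamine with Amplex Red/HRP was then added, and fluorescence (ex 580/em 620 nm) was read every 5 min for 30 min. Inhibition was taken from rates versus max wells, and IC50 from a variable-slope fit.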

MAO-A = target: T2, MAO-A (Homo sapiens, UniProt P21397); assay: Selectivity against MAO-A enzyme (MAO-Glo); assay type: biochemical
T2 construct: purchased Active Motif
T2 sequence (P21397 1-527): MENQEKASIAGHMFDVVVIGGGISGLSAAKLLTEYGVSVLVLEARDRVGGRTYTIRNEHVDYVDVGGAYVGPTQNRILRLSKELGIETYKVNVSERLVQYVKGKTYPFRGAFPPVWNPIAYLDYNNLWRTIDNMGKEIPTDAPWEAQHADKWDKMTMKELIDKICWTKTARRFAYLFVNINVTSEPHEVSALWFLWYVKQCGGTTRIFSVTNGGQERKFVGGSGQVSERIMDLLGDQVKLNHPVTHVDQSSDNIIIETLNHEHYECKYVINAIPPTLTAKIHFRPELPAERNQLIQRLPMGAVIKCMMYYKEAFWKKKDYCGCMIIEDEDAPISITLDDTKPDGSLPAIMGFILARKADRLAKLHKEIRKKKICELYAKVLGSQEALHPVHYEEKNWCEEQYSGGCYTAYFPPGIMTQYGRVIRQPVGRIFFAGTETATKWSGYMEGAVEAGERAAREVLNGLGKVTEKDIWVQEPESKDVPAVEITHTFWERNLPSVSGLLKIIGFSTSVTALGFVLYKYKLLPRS
Method: (1) Instrument, Consumable and Reagent
Microplate reader (Perkin Elmer, EnVision), 384-well plate (Perkin Elmer), centrifuge (Eppendorf), MAO-Glo™ (Promega), MAO-A (Active Motif) and MAO-B (Active Motif).
(2) Preparation of Concentration Gradient Compound Solutions
An appropriate amount of the compound to be tested was taken, dissolved in DMSO to 10 mM and then stored. The solution was then gradiently diluted 4-fold with DMSO, 6 concentration gradients in total.
(3) Preparation of Enzyme Solutions
MAO-A/B mother liquor was diluted with the experimental buffer for MAO-A/B to obtain enzyme solutions of 2× concentrations.
(4) Preparation of Substrate Mixtures of 2× Concentrations
The mother liquor of MAO-A/B substrate mixture was diluted with the experimental buffer for MAO-A/B to obtain substrate mixtures of 2× concentrations.
200 nL compound solutions or solvents of different concentrations and 10 μL MAO-A/B enzyme solutions of 2× concentrations were added into a 384-well plate, centrifuged at 1,000 rpm for 60 s, shaken to be mixed uniformly and then incubated at room temperature for 15 min. 10 μL substrate mixtures of 2× concentrations were then added into each well, and reaction was initiated. The 384-well plate was centrifuged at 1,000 rpm for 60 s, shaken for a uniform mixing and then incubated at room temperature for 60 min. 20 μL of test stop solution was added to stop reaction. Centrifugation was performed at 1,000 rpm for 60 s, and shaking was performed for uniform mixing. After 30 min of standing, the microplate reader was used to perform reading.
The inhibition rate was calculated according to the following formula: Inhibition rate (%)=(Signal_Max-Signal_sample)/(Signal_Max-Signal_min)×100 (6) Fitting of Dose-Response Curve
With the log value of concentration as the X axis and the percent inhibition rate as the Y axis, the log (inhibitor) vs. response-variable slope of analysis software GraphPad Prism 5 was used to fit a dose-response curve, thus obtaining the IC50 value of activity of each compound against the enzyme.

Cl.NC/C(=C\F)Cn1cc2c(c1Cl)CCN(C1CC1)C2=O [Compound A42 hydrochloride, (E)-2-(2-(aminomethyl)-3-fluoroallyl)-1-chloro-5-cyclopropyl-2,5,6,7-tetrahydro-4H-pyrrolo[3,4-c]pyridin-4-one]
IC50 (rhVAP-1): 0.017 µM | IC50 (MAO-A): 47.6 µM

CCn1ccc2nn(C/C(=C/F)CN)cc2c1=O [Compound A28 hydrochloride, (E)-2-(2-(aminomethyl)-3-fluoroallyl)-5-ethyl-2,5-dihydro-4H-pyrazolo[4,3-c]pyridin-4-one]
IC50 (rhVAP-1): 0.033 µM | IC50 (MAO-A): > 100 µM

Cl.NC/C(=C\F)Cn1cc2c(c1Br)CCN(C1CC1)C2=O [Compound A32 hydrochloride, (E)-2-(2-(aminomethyl)-3-fluoroallyl)-1-bromo-5-cyclopropyl-2,5,6,7-tetrahydro-4H-pyrrolo[3,4-c]pyridin-4-one]
IC50 (rhVAP-1): 0.015 µM | IC50 (MAO-A): 61 µM

CCN1CCc2nn(C/C(=C/F)CN)cc2C1=O [Compound A6 hydrochloride, (E)-2-(2-(aminomethyl)-3-fluoroallyl)-5-ethyl-2,5,6,7-tetrahydro-4H-pyrazolo[4,3-c]pyridin-4-one]
IC50 (rhVAP-1): 0.023 µM | IC50 (MAO-A): 89.1 µM

NC/C(=C\F)Cn1cc2c(c1)C(=O)N(C1CC1)CC2 [Compound A22, (E)-2-(2-(aminomethyl)-3-fluoroallyl)-5-cyclopropyl-2,5,6,7-tetrahydro-4H-pyrrolo[3,4-c]pyridin-4-one]
IC50 (rhVAP-1): 0.044 µM | IC50 (MAO-A): > 100 µM

NC/C(=C\F)Cn1ncc2c1CCN(C1CC1)C2=O [Compound A2 hydrochloride, (E)-1-(2-(aminomethyl)-3-fluoroallyl)-5-cyclopropyl-1,5,6,7-tetrahydro-4H-pyrazolo[4,3-c]pyridin-4-one]
IC50 (MAO-A): > 100 µM

CCN1CCc2cn(C/C(=C/F)CN)cc2C1=O [Compound A25, (E)-2-(2-(aminomethyl)-3-fluoroallyl)-5-ethyl-2,5,6,7-tetrahydro-4H-pyrrolo[3,4-c]pyridin-4-one]
IC50 (rhVAP-1): 0.045 µM | IC50 (MAO-A): > 100 µM

CCn1ccc2c(cnn2C/C(=C/F)CN)c1=O [Compound A29 hydrochloride, (E)-1-(2-(aminomethyl)-3-fluoroallyl)-5-ethyl-1,5-dihydro-4H-pyrazolo[4,3-c]pyridin-4-one]
IC50 (rhVAP-1): 0.06 µM | IC50 (MAO-A): 87.7 µM

CNC(=O)c1cnn(C/C(=C/F)CN)c1 [Compound B1, (E)-1-(2-(aminomethyl)-3-fluoroallyl)-N-methyl-1H-pyrazole-4-carboxamide]
IC50 (rhVAP-1): 0.04 µM | IC50 (MAO-A): > 100 µM

Cc1c2c(cn1C/C(=C/F)CN)C(=O)N(C1CC1)CC2 [Compound A35 hydrochloride, (E)-2-(2-(aminomethyl)-3-fluoroallyl)-5-cyclopropyl-1-methyl-2,5,6,7-tetrahydro-4H-pyrrolo[3,4-c]pyridin-4-one]
IC50 (rhVAP-1): 0.024 µM | IC50 (MAO-A): 8.81 µM

CC(C)(C)N1CCc2nn(C/C(=C/F)CN)cc2C1=O [Compound A7 hydrochloride, (E)-2-(2-(aminomethyl)-3-fluoroallyl)-5-tert-butyl-2,5,6,7-tetrahydro-4H-pyrazolo[4,3-c]pyridin-4-one]
IC50 (rhVAP-1): 0.046 µM | IC50 (MAO-A): > 100 µM

NC/C(=C\F)Cn1cc2c(=O)n(C3CC3)ccc2n1 [Compound A41, (E)-2-(2-(aminomethyl)-3-fluoroallyl)-5-cyclopropyl-2,5-dihydro-4H-pyrazolo[4,3-c]pyridin-4-one]
IC50 (rhVAP-1): 0.008 µM | IC50 (MAO-A): > 100 µM

NC/C(=C\F)Cn1c(Br)c2c(c1Br)C(=O)N(C1CC1)CC2 [Compound A33 hydrochloride, (E)-2-(2-(aminomethyl)-3-fluoroallyl)-1,3-dibromo-5-cyclopropyl-2,5,6,7-tetrahydro-4H-pyrrolo[3,4-c]pyridin-4-one]
IC50 (rhVAP-1): 0.023 µM | IC50 (MAO-A): 55.9 µM
